Measured values taken from patent publication US20080108661A1, “Medicaments” (AstraZeneca AB, priority 2006, published 2008).
One block for each molecule: values may come before it.

How the values were obtained:
[1] = tested on: human articular chondrocytes (HAC)
Description: (i) Isolation of Human Articular Chondrocytes (HAC) from OA Cartilage for Histamine stimulation. HAC are isolated from cartilage from osteoarthritic tissues removed at joint replacement. Cartilage is incubated overnight in 2 mg/ml collagenase in DMEM+10% FCS+PSG at 37° C., with shaking. The resulting cell suspension is filtered to remove undigested cartilage and the cells are centrifuged at 1200 rpm for 10 minutes. Cells are resuspended in DMEM plus 10% FCS PSG/NEAA/fungizone/gentamycin, plated at approx 5×10^−6 in a T-75 and grown to confluence. Cells are subsequently plated at approx 10,000 cells per well into 96 well plates for stimulation with histamine. Triplicate wells of first passage HAC are treated with either DMEM (10% or 0% FCS) alone (control), or DMEM (10% or 0% FCS) plus histamine (dose range 10 nM up to 1 mM). Cells are incubated at 37° C. for 24 hours, the conditioned medium harvested, and assayed for PGE2, MMP or cytokine production by enzyme linked immunosorbent assay (ELISA). […] For some experiments cells are incubated with specific antagonists for 20 minutes prior to, and in combination with, histamine stimulation.

[2] = tested on: human articular chondrocytes (HAC); remark: listed apart in the source
CCR3 = target: T1, CCR3 (Homo sapiens, UniProt P51677); assay: Chemokine (CCR3 ligand) stimulation of human OA cartilage explant, gene expression (low density array Q-PCR); assay type: cell-based
T1 construct: Human osteoarthritic cartilage is obtained during total knee replacement surgery; from tissue; host or cells: human osteoarthritic knee articular cartilage explants (femoral condyles and tibial plateau)
T1 sequence (P51677 1-355): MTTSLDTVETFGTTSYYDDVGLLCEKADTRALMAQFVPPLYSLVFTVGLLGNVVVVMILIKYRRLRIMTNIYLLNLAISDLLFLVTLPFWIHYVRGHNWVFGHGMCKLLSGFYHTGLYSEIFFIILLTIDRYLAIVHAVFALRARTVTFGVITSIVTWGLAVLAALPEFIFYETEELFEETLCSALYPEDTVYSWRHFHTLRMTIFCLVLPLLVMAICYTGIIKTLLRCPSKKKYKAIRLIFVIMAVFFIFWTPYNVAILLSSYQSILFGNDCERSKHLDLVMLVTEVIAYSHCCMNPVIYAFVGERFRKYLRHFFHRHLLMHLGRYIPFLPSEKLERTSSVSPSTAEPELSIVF
Description: (ii) Chemokine Stimulation of Human Cartilage Explant
Human osteoarthritic cartilage is obtained during total knee replacement surgery. Full-depth cartilage slices are obtained from both the femoral condyles and the tibial plateau and explant discs removed using a 5 mm diameter KAI sterile dermal biopsy punch. After dissection, the explants are all pooled in a Petri dish. For each condition, sixteen explants are randomly taken from the Petri dish and cultured in polypropylene 96-well plates with phenol red free Dulbecco's Modified Eagle Medium (DMEM; Gibco, Grand Island, N.Y.), 150 μg/ml gentamicin, 1.5 μg/ml fungizone and 100 units/ml penicillin, 100 μg/ml streptomycin and L-Glutamine.
After an initial 48 hour pre-stimulation, rest period, experimental reagents are added for 24, 48 or 96 hours. Explants are incubated with the appropriate concentration of compound alone, or DMSO as a control, for 20 minutes prior to addition of the chemokine. Cartilage is subsequently treated with either vehicle control (plus DMSO); chemokine (at 30-300 ng/ml) plus DMSO; or chemokine (30 ng/ml) plus the compound of Example 1. Conditioned media are collected 24, 48 or 96 hours post stimulation and stored at −20° C. prior to analysis. Cartilage explants are also collected and snap frozen in liquid nitrogen, prior to RNA extraction.
Extraction of RNA from Cartilage Explants
Each condition is composed of sixteen cartilage explant discs, which are pooled prior to snap freezing in liquid nitrogen. These pooled samples are ground to a fine powder under liquid nitrogen then resuspended in 10 ml trizol in polypropylene Oakridge tubes, and RNA extracted according to the manufacturer's protocol. The RNA pellet is resuspended in approx 500 μl RNAse and DNAse free water and then combined with 1.75 ml Qiagen RLT. RNA is further purified with Qiagen RNEasy mini columns (Qiagen Cat# 74104), as described in the manufacturer's protocol, including on column DNA digestion. The RNA obtained by these procedures is analysed using Agilent bioanalyser technology, according to the manufacturer's instructions, to determine the quantity and quality.
Gene Expression Analysis: the 96 and 48 Gene Fingerprints Using Low Density Arrays (Q-PCR)
Low-density gene arrays [quantitative polymerise chain reaction (Q-PCR) method] with either 96 or 48 genes pertinent to OA (as identified by Affymetrix microarray analysis of OA articular cartilage) are used to assess the effects of treating human diseased cartilage explants with the chemokines eotaxin-2 or RANTES, alone or in combination with the compound of Example 1. Gene expression changes were reported as fold change normalised against a standard non-affected gene: GAPDH.

[3] = tested on: murine articular knee joint; assay: Histamine-induced joint oedema, murine articular knee joint (calliper measurements); assay type: in vivo, mouse
Description: (§1) (iii) In Vivo Functional Validation of Histamine-Induced Responses Murine Articular Knee Joint
(§2) It is hypothesised that histamine released by trafficking mast cells or by the de novo synthesis of histamine by articular chondrocytes induces a H1-dependant increase in COX-2 mRNA expression and elevated PGE2 synthesis in synovial fibroblasts and articular chondrocytes. To evaluate the role of histamine in pathological processes in the joint, a pharmacodynamic mouse model was developed to investigate the effect of intra-articular injection (IAI) of histamine on joint swelling using calliper measurements, and measuring PGE2 and/or 11-6 levels from synovial knee joint ravages.
(§3) Adult C57B16 mice were dosed with either vehicle or test compound 1 hour prior to intra-articular injection of histamine (5 μmol). Swelling was induced by injection of 6 μl of histamine/saline suspension into the knee joint cavity under inhalation anaesthesia with isoflurane. Joint swelling was quantified by calliper measurements taken at 1, 6, 12, 24, 36 and 48 hr. Terminal synovial fluid knee lavages were sampled and levels of the inflammatory mediator I1-6 were measured in the fluid from synovial knee joint ravages.

[4] = tested on: murine articular knee joint; conditions: intra-articular histamine injection, mice
Description: as §1, §2, §3

[5] = Eotaxin 2 stimulation, donor 014—04

Molecule: O=C(O)COCCN1CCN(C(c2ccccc2)c2ccc(Cl)cc2)CC1 (stereo not shown) [cetirizine]
inhibition of histamine-induced PGE2 release ([1]; 100 nM (FIG. 2)): inhibited
inhibition of histamine-induced increase in Cox2 mRNA expression ([2]; 100 nM): inhibited

inhibition of CCR3 ligand-induced increase in ADAMTS4, MMP13, IL-6, IL-8 and MMP2 mRNA expression (CCR3; at 3×pA2, n=3 (FIG. 3)): inhibited
Molecule: O=C(NC[C@@H](O)CN1CCC(Oc2ccc(Cl)c(Cl)c2)CC1)c1sc(=O)[nH]c1C(F)(F)F [Example 1, N-{(2R)-3-[4-(3,4-Dichlorophenoxy)piperidin-1-yl]-2-hydroxypropyl}-2,3-dihydro-2-oxo-4-(trifluoromethyl)-5-thiazolecarboxamide benzenesulfonate Form A]

Molecule: NCCc1c[nH]cn1 [histamine, 2-(4-imidazolyl)-ethylamine]
increase in joint oedema compared to vehicle control animals ([3]; intra-articular injection of histamine (5 μmol), C57B16 mice): 5 fold
increase in release of IL-6 into the synovial fluid [4]: > 60%
release of PGE2 ([1]; histamine stimulation, n=6 (FIG. 2)): dose dependent increase
Cox2 mRNA expression levels ([2]; histamine stimulation): increase

Molecule: Clc1ccc2c(c1)CCc1cccnc1C2=C1CCNCC1 [desloratadine]
histamine-induced joint swelling under treatment ([3]; 5.1 mg/kg, dosed 1 hour prior to intra-articular histamine): almost completely ablated

increased expression of IL-6 (CCR3; [5]): 14 fold
increased expression of IL-8 (CCR3; [5]): 11 fold
elevation of periostin expression (CCR3; donor 014—04): 2 fold
enhanced expression of ADAMTS4 (CCR3; donor 014—04): 3.6 fold
enhanced expression of ADAMTS 5 (CCR3; donor 014—04): 6 fold
B1: Eotaxin 2: the CCR3 ligand, a chemokine used to stimulate cartilage explants (protein, UniProt O00175 27-119, looked up)
C-C motif chemokine 24: VVIPSPCCMFFVSKRIPENRVVSYQLSSRSTCLKAGVIFTTKKGQQFCGDPKQEWVQRYMKNLDAKQKKASPRARAVAVKGPVQRYPGNQTTC
